From patent US20120015907A1, “Furopyridine compounds and uses thereof” (NOVARTIS AG, priority 2010, published 2012)
Where two headings read alike, the source gives them in different places.

What was measured:
[1] = test system: HCV replicon I389luc-ubi-neo/NS3-3'/ET in ET (Huh-lucubineo-ET) cells; assay: Replicon assay (Biological Example 2), luciferase read-out; format: cell-based; conditions: Hepatitis C virus, luciferase activity 48 hours after compound addition
Method: A cell line, ET (Huh-lucubineo-ET) is used for screening of compounds for inhibiting HCV RNA dependent RNA polymerase. The ET cell line is stably transfected with RNA transcripts harboring a I389luc-ubi-neo/NS3-3′/ET; replicon with firefly luciferase-ubiquitin-neomycin phosphotransferase fusion protein and EMCV-IRES driven NS3-5B polyprotein containing the cell culture adaptive mutations (E1202G; […]; K1846T) (Krieger at al, 2001 and unpublished). The ET cells are grown in DMEM (Dulbeco's Modified Eagle's Medium), supplemented with 10% fetal calf serum, 2 mM Glutamine, Penicillin (100 IU/mL)/Streptomycin (100 μg/mL), 1× nonessential amino acids, and 250 μg/mL G418 (“Geneticin”). Reagents are all available through Life Technologies (Bethesda, Md.). The cells are plated at 0.5-1.0×10^4 cells/well in the 96 well plates and incubated for 24 hrs before adding test compound. The compounds are added to the cells to achieve a final concentration of 0.1 nM to 50 μM and a final DMSO (dimethylsulfoxide) concentration of 0.5%. Luciferase activity is measured 48 hours later by adding a lysis buffer and the substrate (Catalog number Glo-lysis buffer E2661 and Bright-Glo luciferase system E2620 Promega, Madison, Wis.). Cells should not be too confluent during the assay. Percent inhibition of replication data is plotted relative to no compound control. To determine the EC50 (effective concentration at which 50% of the maximum inhibition is observed), a 10 point, 3-fold serial dilution for each compound is used, which spans a concentration range of 1000 fold. EC50 values were calculated by fitting % inhibition at each concentration to the following equation:
% inhibition=100%/[(EC50/[I])^b+1]
where b is Hill's coefficient.

[2] = target: T1, HCV polymerase (Hepatitis C virus genotype 1b, UniProt Q9WMX2); assay: biochemical; conditions: polymerase assay of Biological Example 1
T1 construct: (His)6 (C)

Row | SMILES | IC50 ([2]; read-out: NS5B polymerase IC50) [µM] | also measured
1 | CNC(=O)c1c(-c2ccc(F)cc2)oc2nc(N(C)S(C)(=O)=O)c(CCCCCNC(=O)OC(C)(C)C)cc12 [Example 14.1, tert-butyl 5-(2-(4-fluorophenyl)-3-(methylcarbamoyl)-6-(N-methylmethylsulfonamido)furo[2,3-b]pyridin-5-yl)pentylcarbamate] | – | IC50 [1]: ≤ 100 nM
2 | CNC(=O)c1c(-c2ccc(F)cc2)oc2nc(N(CCCC3CCCS3(=O)=O)S(C)(=O)=O)c(C3CC3)cc12 (centres unmarked) [Example 24.6, 5-Cyclopropyl-6-{[3-(1,1-dioxo-tetrahydrothiophen-2-yl)-propyl]-methanesulfonyl-amino}-2-(4-fluoro-phenyl)-furo[2,3-b]pyridine-3-carboxylic acid methylamide] | – | IC50 [1]: ≤ 100 nM
3 | CNC(=O)c1c(-c2ccc(C)cc2)oc2nc(N(CCC[C@@H](C)C(=O)N[C@H](C(=O)OC)c3ccccc3)S(C)(=O)=O)c(C3CC3)cc12 [Example 29.99997, (S)-methyl 2-((R)-5-(N-(5-cyclopropyl-3-(methylcarbamoyl)-2-p-tolylfuro[2,3-b]pyridin-6-yl)methylsulfonamido)-2-methylpentanamido)-2-phenylacetate] | 0.004 | –
4 | CNC(=O)c1c(-c2ccc(C)cc2)oc2nc(N(CCCCCO)S(C)(=O)=O)c(I)cc12 [Example 23.99991, 6-(N-(5-hydroxypentyl)methylsulfonamido)-5-iodo-N-methyl-2-p-tolylfuro[2,3-b]pyridine-3-carboxamide] | 0.009 | –
5 | CNC(=O)c1c(-c2ccc(C)cc2)oc2nc(N(CCCC/C(C(=O)O)=C(\C)O)S(C)(=O)=O)c(C3CC3)cc12 [Example 46.1, (Z)-6-(N-(5-cyclopropyl-3-(methylcarbamoyl)-2-(p-tolyl)furo[2,3-b]pyridin-6-yl)methylsulfonamido)-2-(1-hydroxyethylidene)hexanoic acid] | 0.003 | –
6 | CCc1cc2c(C(=O)NC)c(-c3ccc(F)cc3)oc2nc1N(CCOc1ccccc1C(=O)OC)S(C)(=O)=O [Example 22.5, methyl 2-(2-(N-(5-ethyl-2-(4-fluorophenyl)-3-(methylcarbamoyl)furo[2,3-b]pyridin-6-yl)methylsulfonamido)ethoxy)benzoate] | 0.083 | –
7 | CNC(=O)c1c(-c2ccc(C)cc2C)oc2nc(N(CCCCC(=O)O)S(C)(=O)=O)c(C3CC3)cc12 [Example 29.99996, 5-(N-(5-cyclopropyl-2-(2,4-dimethylphenyl)-3-(methylcarbamoyl)furo[2,3-b]pyridin-6-yl)methylsulfonamido) pentanoic acid] | 0.037 | –
8 | CNC(=O)c1c(-c2ccc(F)cc2)oc2nc(N(CCn3ccnc3)S(C)(=O)=O)c(I)cc12 [Example 23.995, 6-(N-(2-(1H-imidazol-1-yl)ethyl)methylsulfonamido)-2-(4-fluorophenyl)-5-iodo-N-methylfuro[2,3-b]pyridine-3-carboxamide] | 0.114 | –
9 | CNC(=O)c1c(-c2ccc(F)cc2)oc2nc(N(CCCC(=O)OC)S(C)(=O)=O)c(I)cc12 [Example 18.7, methyl 4-(N-(2-(4-fluorophenyl)-5-iodo-3-(methylcarbamoyl)furo[2,3-b]pyridin-6-yl)methylsulfonamido)butanoate] | 0.076 | –
10 | CNC(=O)c1c(-c2ccc(C)cc2)oc2nc(N(CCCBr)S(C)(=O)=O)c(C3CC3)cc12 [Example 29.999, 6-(N-(3-bromopropyl)methylsulfonamido)-5-cyclopropyl-N-methyl-2-p-tolylfuro[2,3-b]pyridine-3-carboxamide] | 0.004 | –
11 | CNC(=O)c1c(-c2ccc(F)cc2)oc2nc(N(CCC3CCS(=O)(=O)C3)S(C)(=O)=O)c(C3CC3)cc12 (centres unmarked) [Example 25.91, 5-Cyclopropyl-6-{[2-(1,1-dioxo-tetrahydro-thiophen-3-yl)-ethyl]-methanesulfonyl-amino}-2-(4-fluoro-phenyl)-furo[2,3-b]pyridine-3-carboxylic acid methylamide] | 0.003 | –
12 | CNC(=O)c1c(-c2ccc(C)cc2)oc2nc(N(CCCC(C#N)CC(=O)O)S(C)(=O)=O)c(C3CC3)cc12 (centres unmarked) [Example 29.999995, 3-cyano-6-(N-(5-cyclopropyl-3-(methylcarbamoyl)-2-p-tolylfuro[2,3-b]pyridin-6-yl)methylsulfonamido) hexanoic acid] | 0.003 | –
13 | CNC(=O)c1c(-c2ccc(C)cc2)oc2nc(N(CCCP(C)(=O)O)S(C)(=O)=O)c(C3CC3)cc12 [Example 23.99998, 3-(N-(5-cyclopropyl-3-(methylcarbamoyl)-2-p-tolylfuro[2,3-b]pyridin-6-yl)methylsulfonamido)propyl (methyl)phosphinic acid] | – | IC50 ([2]; NS5B polymerase IC50 μM): 0.005 µM
14 | CNC(=O)c1c(-c2ccc(F)cc2)oc2nc(N(C)S(C)(=O)=O)c(CCCN)cc12 [Example 15, 5-(3-aminopropyl)-2-(4-fluorophenyl)-N-methyl-6-(N-methylmethylsulfonamido)furo[2,3-b]pyridine-3-carboxamide] | 0.532 | –
15 | CNC(=O)c1c(-c2ccc(F)cc2)oc2nc(N(C)S(C)(=O)=O)c(CCCCC(=O)N3CCC[C@H]3C(=O)OC)cc12 [Example 4.6, (S)-methyl 1-(5-(2-(4-fluorophenyl)-3-(methylcarbamoyl)-6-(N-methylmethylsulfonamido)furo[2,3-b]pyridin-5-yl)pentanoyl)pyrrolidine-2-carboxylate] | 0.113 | –
16 | CNC(=O)c1c(-c2ccc(C)cc2)oc2nc(N(CCCCCCCC(=O)O)S(C)(=O)=O)c(C3CC3)cc12 [Example 29.991, 8-(N-(5-cyclopropyl-3-(methylcarbamoyl)-2-p-tolylfuro[2,3-b]pyridin-6-yl)methylsulfonamido) octanoic acid] | 0.004 | –
17 | CNC(=O)c1c(-c2ccc(C)cc2)oc2nc(N(CCOCCBr)S(C)(=O)=O)c(C3CC3)cc12 [Example 29.99994, 6-(N-(2-(2-bromoethoxy)ethyl)methylsulfonamido)-5-cyclopropyl-N-methyl-2-p-tolylfuro[2,3-b]pyridine-3-carboxamide] | 0.007 | –
18 | CNC(=O)c1c(-c2ccc(C)cc2)oc2nc(N(CCCC[C@H](COC)C(=O)O)S(C)(=O)=O)c(C3CC3)cc12 [Example 47.5, (R)-6-(N-(5-Cyclopropyl-3-(methylcarbamoyl)-2-p-tolylfuro[2,3-b]pyridin-6-yl)methylsulfonamido)-2-(methoxymethyl)hexanoic acid] | 0.003 | –
19 | CNC(=O)c1c(-c2ccc(C)cc2)oc2nc(N(CCCCCBr)S(C)(=O)=O)c(C3CC3)cc12 [Example 29.998, 6-(N-(5-bromopentyl)methylsulfonamido)-5-cyclopropyl-N-methyl-2-p-tolylfuro[2,3-b]pyridine-3-carboxamide] | 0.003 | –
20 | CCc1cc2c(C(=O)NC)c(-c3ccc(F)cc3)oc2nc1N(CCCCl)S(C)(=O)=O [Example 22.997, 6-(N-(3-chloropropyl)methylsulfonamido)-5-ethyl-2-(4-fluorophenyl)-N-methylfuro[2,3-b]pyridine-3-carboximide] | 0.083 | –
21 | CNC(=O)c1c(-c2ccc(C)cc2)oc2nc(N(CC(O)CCC(=O)O)S(C)(=O)=O)c(C3CC3)cc12 (centres unmarked) [Example 29.995, 5-(N-(5-cyclopropyl-3-(methylcarbamoyl)-2-p-tolylfuro[2,3-b]pyridin-6-yl)methylsulfonamido)-4-hydroxypentanoic acid] | 0.013 | –
22 | CNC(=O)c1c(-c2ccc(F)cc2)oc2nc(N(C)S(C)(=O)=O)c(C)cc12 [Example 2.92, 2-(4-fluorophenyl)-N,5-dimethyl-6-(N-methylmethylsulfonamido)furo[2,3-b]pyridine-3-carboxamide] | 0.256 | –
23 | CCc1cc2c(C(=O)NC)c(-c3ccc(F)cc3)oc2nc1N(CCCC(=O)OC)S(C)(=O)=O [Example 21.1, methyl 4-(N-(5-ethyl-2-(4-fluorophenyl)-3-(methylcarbamoyl)furo[2,3-b]pyridin-6-yl)methylsulfonamido)butanoate] | 0.052 | –
24 | CCc1ccc(-c2oc3nc(N(CCCC4(C(=O)O)CC4)S(C)(=O)=O)c(C4CC4)cc3c2C(=O)NC)cc1 [Example 29.9993, 1-(3-(N-(5-cyclopropyl-2-(4-ethylphenyl)-3-(methylcarbamoyl)furo[2,3-b]pyridin-6-yl)methylsulfonamido)propyl) cyclopropanecarboxylic acid] | 0.002 | –
25 | CCOP(C)(=O)CCCCN(c1nc2oc(-c3ccc(CC)cc3)c(C(=O)NC)c2cc1I)S(C)(=O)=O (centres unmarked) [Example 23.9991, ethyl 4-(N-(2-(4-ethylphenyl)-5-iodo-3-(methylcarbamoyl)furo[2,3-b]pyridin-6-yl)methylsulfonamido) butyl(methyl)phosphinate] | – | IC50 ([2]; NS5B polymerase IC50 μM): 0.026 µM
26 | CNC(=O)c1c(-c2ccc(C)cc2)oc2nc(N(CCCC(CC#N)C(=O)O)S(C)(=O)=O)c(C3CC3)cc12 (centres unmarked) [Example 29.9999, 2-(cyanomethyl)-5-(N-(5-cyclopropyl-3-(methylcarbamoyl)-2-p-tolylfuro[2,3-b]pyridin-6-yl)methylsulfonamido) pentanoic acid] | 0.002 | –
